Assay results from patent publication US4350691A, “Certain azabicyclocarboxamides and compositions containing same” (Beecham Group Limited, priority 1979, dated 1982).

Columns and labels:
Assay type in all cases: in vivo
[1] = system: gastric motility; assay: Gastric Motility Testing in the Rat (reversal of the inhibition effect of 6,7-ADTN); conditions: conscious chronic gastric fistula rat; for reversal of the reduction of basal gastric motor activity by 6,7-ADTN: 10 minutes after 6,7-ADTN 1 mg/kg s.c.
Method: The compounds were tested for ability to reverse the inhibition effect of 6,7-ADTN on gastric motility recorded by an open tipped catheter in the conscious chronic gastric fistula rat. […] For subcutaneous testing the compounds were dissolved in water by the addition of tartaric acid (1/2 mole per mole of compound).

[2] = system: dopamine receptor; assay: Inhibition of Apomorphine Induced Climbing in the Mouse; conditions: for Activity % Inhibition: apomorphine induced climbing, apomorphine 1 mg/kg s.c., orally 30 min prior
Method: The compound prepared in Example 3 was tested for inhibition of apomorphine induced climbing behaviour in the mouse. This is indicative of dopamine receptor blockade in the central nervous system.
The test is based on that described by Protais, P., Constantin, J. and Schwartz, J. C. (1976), Psychopharmacology, 50, 1-6.
Apomorphine 1 mg/kg s.c. induces mice to climb the wall of a wire cage (inverted food hopper--11×7.5×18 cm high). Mice acclimatised in their home cages in groups of 5 are placed under the hoppers immediately after the injection of apomorphine 1 mg/kg s.c. At 10,20 and 30 minutes after injection climbing behaviour is scored. The mice are observed for 30 seconds and scored according to the position they spend the majority of time in, score 0--four paws on floor of cage; score 1--fore paws only on walls; score 2--all paws on wall of cage. The scores at all 3 times and for each mouse are summed and mice drug treated orally 30 min. prior to apomorphine compared to mice receiving apomorphine only. A saline only treated group is also included and any score, generally 5% of maximum taken into account.

[3] = system: vomiting response; assay: Anti-emetic Activity in the Dog (apomorphine HCl vomiting response); conditions: Canis lupus familiaris, 0.5 h; s.c., 30 minutes prior to apomorphine HCl 0.1 mg/kg subcutaneously; read-out: dose that totally inhibited the vomiting response
Method: Compounds were administered subcutaneously 30 minutes, or per os 2 hr, prior to administration of a standard dose of apomorphine HCl (0.1 mg/kg subcutaneously) and the vomiting response compared to that obtained when the same animals were dosed with apomorphine HCl and vehicle only.

For `NC1CCc2cc(O)c(O)cc2C1` (stereo not drawn) [6,7-ADTN, reference compound], the “basal gastric motor activity” value ([1]; 6,7-ADTN 1 mg/kg s.c.) was “reduced basal gastric motor activity”.
`COc1ccc(NC(=O)[C@@H]2C[C@H]3CC[C@@H](C2)N3Cc2ccccc2)c(OC)c1` [Compound 20, 3-methoxy-4-[8'-benzyl-8'-azabicyclo[3.2.1]octane-3β'-carboxamido]anisole] was tested, and the “Activity % Inhibition” value ([2]; compound dose 10 mg/kg) was 100%.
In the case of `COc1ccc(OC)c(NC(=O)[C@@H]2C[C@H]3CC[C@@H](C2)N3Cc2ccccc2)c1` [Compound 21, 4-methoxy-2-(8'-benzyl-8'-azabicyclo[3.2.1]octane-3β-carboxamido)anisole], the “Activity % Inhibition” value ([2]; compound dose 2 mg/kg) was 60%.
With `COc1ccc(S(C)(=O)=O)cc1NC(=O)[C@@H]1C[C@H]2CC[C@@H](C1)N2Cc1ccccc1` [Compound 24, 4-methylsulphonyl-2-(8'-benzyl-8'-azabicyclo[3,2,1]octane-3'β-carboxamido)anisole] the “reversal of the reduction of basal gastric motor activity by 6,7-ADTN” value ([1]; compound 1 mg/kg s.c.) was “reversed” and the ED100 [3] was 0.1 mg/kg.
For `COc1ccc(S(N)(=O)=O)cc1NC(=O)[C@@H]1C[C@H]2CC[C@@H](C1)N2Cc1ccccc1` [Compound 25, 4-aminosulphonyl-2-(8'benzyl-8'-azabicyclo[3.2.1]octane-3'β-carboxamido)anisole], the “reversal of the reduction of basal gastric motor activity by 6,7-ADTN” value ([1]; compound 5 mg/kg s.c.) was “reversed”.
`COc1cc(N)c(Cl)cc1NC(=O)[C@@H]1C[C@H]2CC[C@@H](C1)N2Cc1ccccc1` [Compound 44, 5-Amino-4-chloro-2-[8'-benzyl-8'-azabicyclo-[3.2.1]octane-3'β-carboxamido]-anisole] was tested, and the “Activity % Inhibition” value ([2]; compound dose 1 mg/kg) was 100% and the ED50 ([2]; inhibition of apomorphine induced climbing, orally 30 min prior to apomorphine 1 mg/kg s.c.) was 0.05 mg/kg.
In the case of `COc1cc(N)c(Cl)cc1NC(=O)[C@@H]1C[C@H]2CC[C@@H](C1)N2Cc1ccc(Cl)c(Cl)c1` [Compound 45, 5-amino-4-chloro-2-(8'-[3",4"-dichlorobenzyl]-8'-azabicyclo[3.2.1]octane-3β'-carboxamido)anisole], the “Activity % Inhibition” value ([2]; compound dose 10 mg/kg) was 100%.
`COc1cc(N)c(Cl)cc1NC(=O)[C@@H]1C[C@H]2CC[C@@H](C1)N2Cc1ccc(Cl)cc1` [Compound 46, 5-amino-4-chloro-2-(8'-(4"-chlorobenzyl)-8'-azabicyclo [3.2.1]octane-3'β-carboxamido)anisole] was tested, and the “Activity % Inhibition” value ([2]; compound dose 10 mg/kg) was 100%.
For `COc1cc(N)c(Cl)cc1NC(=O)[C@@H]1C[C@H]2CC[C@@H](C1)N2Cc1ccc(C)cc1` [Compound 47, 5-amino-4-chloro-2-(8'-[4"-methylbenzyl]-8'-azabicyclo [3.2.1]octane-3'β-carboxamido)anisole], the “Activity % Inhibition” value ([2]; compound dose 10 mg/kg) was 100%.
With `COc1ccc(CN2[C@@H]3CC[C@H]2C[C@H](C(=O)Nc2cc(Cl)c(N)cc2OC)C3)cc1` [Compound 48, 5-amino-4-chloro-2-(8'-[4"-methoxybenzyl]-8'-azabicyclo [3.2.1]octane-3'β-carboxamido)anisole] the “Activity % Inhibition” value ([2]; compound dose 10 mg/kg) was 100%.
With `COc1cc(N)c(Cl)cc1NC(=O)[C@@H]1C[C@H]2CC[C@@H](C1)N2CCC(C)C` [Compound 53, 5-amino-4-chloro-2-(8'-3"-methylbutyl-8'-azabicyclo [3.2.1]octane-3'β-carboxamido)anisole] the “Activity % Inhibition” value ([2]; compound dose 10 mg/kg) was 56%.
With `COc1cc(N)c(Cl)cc1NC(=O)[C@@H]1C[C@H]2CC[C@@H](C1)N2CC1CCCCC1` [Compound 55, 5-amino-4-chloro-2-(8'-cyclohexylmethyl-8'-azabicyclo [3.2.1]octane-3'β-carboxamido)anisole] the “Activity % Inhibition” value ([2]; compound dose 50 mg/kg) was 100%.
With `COc1cc(NC(C)=O)c(Cl)cc1NC(=O)[C@@H]1C[C@H]2CC[C@@H](C1)N2Cc1ccccc1` [Compound 62, 5-Acetamido-4-chloro-2-[8-benzyl-8-azabicyclo (3,2,1)acetone-3β-carboxamido]anisole] the “Activity % Inhibition” value ([2]; compound dose 2 mg/kg) was 95%.
